Laboratory results published in the NIST ThermoML archive (doi:10.1021/je500804j).
± gives the expanded uncertainty stated by the source.

Test: mn = molality of the nth substance listed, in mol/kg
Conditions: 101 kPa, Liquid, Alternating current cell with electrodes

CCCCCCCC[N+](C)(C)CCCCCCCCCCCC[N+](C)(C)CCCCCCCC.[Br-].[Br-] + O
electrical conductivity [S/m]
Conditions | 318.15 K | 323.15 K
m1 = 0.00357 | – | 0.08471 ± 0.00069
m1 = 0.00693 | – | 0.1849 ± 0.00089
m1 = 0.01009 | – | 0.2444 ± 0.0011
m1 = 0.01308 | – | 0.3157 ± 0.0014
m1 = 0.01591 | – | 0.3898 ± 0.0016
m1 = 0.01801 | 0.3868 ± 0.0016 | –
m1 = 0.01859 | – | 0.436 ± 0.0018
m1 = 0.01939 | 0.4168 ± 0.0017 | –
m1 = 0.02073 | 0.43 ± 0.0018 | –
m1 = 0.02113 | – | 0.483 ± 0.002
m1 = 0.02204 | 0.4546 ± 0.0019 | –
m1 = 0.0228 | 0.465 ± 0.0019 | –
m1 = 0.02355 | – | 0.5236 ± 0.0021
m1 = 0.02356 | 0.4755 ± 0.0019 | –
m1 = 0.02431 | 0.4857 ± 0.002 | –
m1 = 0.02577 | 0.5063 ± 0.0021 | –
m1 = 0.02585 | – | 0.561 ± 0.0023
m1 = 0.02648 | 0.5133 ± 0.0021 | –
m1 = 0.02718 | 0.5232 ± 0.0021 | –
m1 = 0.02787 | 0.5323 ± 0.0022 | –
m1 = 0.02803 | – | 0.5895 ± 0.0024
m1 = 0.02856 | 0.5407 ± 0.0022 | –
m1 = 0.02909 | – | 0.6082 ± 0.0025
m1 = 0.02923 | 0.5499 ± 0.0022 | –
m1 = 0.02989 | 0.5578 ± 0.0023 | –
m1 = 0.03012 | – | 0.623 ± 0.0025
m1 = 0.03113 | – | 0.6393 ± 0.0026
m1 = 0.03119 | 0.5732 ± 0.0023 | –
m1 = 0.03211 | – | 0.6494 ± 0.0026
m1 = 0.03245 | 0.5881 ± 0.0024 | –
m1 = 0.03307 | 0.5997 ± 0.0024 | 0.6638 ± 0.0027
m1 = 0.03368 | 0.6044 ± 0.0024 | –
m1 = 0.03401 | – | 0.6772 ± 0.0027
m1 = 0.03428 | 0.6091 ± 0.0025 | –
m1 = 0.03488 | 0.6155 ± 0.0025 | –
m1 = 0.03512 | – | 0.6913 ± 0.0028
m1 = 0.03546 | 0.6234 ± 0.0025 | –
m1 = 0.03566 | – | 0.6951 ± 0.0028
m1 = 0.03604 | 0.6307 ± 0.0026 | –
m1 = 0.03619 | – | 0.6993 ± 0.0028
m1 = 0.03661 | 0.6379 ± 0.0026 | –
m1 = 0.03671 | – | 0.7037 ± 0.0028
m1 = 0.03717 | 0.6434 ± 0.0026 | –
m1 = 0.03775 | – | 0.7171 ± 0.0029
m1 = 0.03825 | – | 0.7266 ± 0.0029
m1 = 0.03828 | 0.655 ± 0.0026 | –
m1 = 0.03875 | – | 0.7317 ± 0.0029
m1 = 0.03918 | 0.6646 ± 0.0027 | –
m1 = 0.03925 | – | 0.7354 ± 0.003
m1 = 0.03973 | – | 0.7413 ± 0.003
m1 = 0.04006 | 0.6728 ± 0.0027 | –
m1 = 0.04069 | – | 0.7517 ± 0.003
m1 = 0.04092 | 0.681 ± 0.0027 | –
m1 = 0.04116 | – | 0.7566 ± 0.0031
m1 = 0.04162 | – | 0.7617 ± 0.0031
m1 = 0.04176 | 0.6915 ± 0.0028 | –
m1 = 0.04208 | – | 0.7694 ± 0.0031
m1 = 0.04254 | – | 0.7737 ± 0.0031
m1 = 0.04259 | 0.6986 ± 0.0028 | –
m1 = 0.04328 | – | 0.7801 ± 0.0031
m1 = 0.04401 | – | 0.7896 ± 0.0032
m1 = 0.04419 | 0.7143 ± 0.0029 | –
m1 = 0.04472 | – | 0.8 ± 0.0032
m1 = 0.04542 | – | 0.8049 ± 0.0032
m1 = 0.04573 | 0.732 ± 0.0029 | –
m1 = 0.04611 | – | 0.8129 ± 0.0033
m1 = 0.04678 | – | 0.8211 ± 0.0033
m1 = 0.04721 | 0.7463 ± 0.003 | –
m1 = 0.04745 | – | 0.831 ± 0.0034
m1 = 0.0481 | – | 0.8348 ± 0.0034
m1 = 0.04863 | 0.7603 ± 0.0031 | –
m1 = 0.04936 | – | 0.8479 ± 0.0034
m1 = 0.05001 | 0.7719 ± 0.0031 | –
m1 = 0.05058 | – | 0.8638 ± 0.0035
m1 = 0.05133 | 0.7858 ± 0.0032 | –
m1 = 0.05176 | – | 0.8724 ± 0.0035
